Tests used:
[1] = tested on: MDA-MB-231-xenografted NOG mice; assay: In vivo xenografted-tumor mouse model
Description: Protocol was approved by the INSERM Institutional Care and Use Committee according to the European Communities Council Directive. NOD/scid/IL-2Rγ−/− (NOG) female mice were bred and housed in pathogen-free conditions in accordance with the Federation of European Animal Associations (FELSA) guidelines. […]. […] Tumor growth and body weight were measured every three days during the treatment. Mice were weighed regularly to assess the toxicity of the treatment and the tumors were measured with calipers (width×width×length×Pi/6) to determine growth.

[2] = tested on: JNK-1/-2/-3/-pan; assay: Human phosphokinase proteome profiler array, MDA-MB-231; assay type: cell-based; details: MDA-MB-231, compound at IC50, 10 and 60 minutes
Description: (§1) MDA-MB-231 cells were incubated in the presence or absence of NRPa-47 or NRPa-48 compounds (IC50) and protein lysates were prepared and quantified as previously described. Biochemical signaling detection was evaluated by using human proteome profiler array (human phosphokinase array and human apoptosis array) according to the manufacturer's instructions (R&D systems, France). Briefly, capture and control antibodies were spotted in duplicate on nitrocellulose membranes. Cellular extracts were incubated overnight on membrane, washed to remove unbound proteins, followed by incubation with a cocktail of biotinylated detection antibodies. Streptavidin-HRP and chemiluminescent detection reagents were applied, and the signal intensity corresponding to the amount of protein bound was measured at each capture spot using ImageJ software.

[3] = tested on: p38α; assay: as above; assay type: cell-based; details: MDA-MB-231, compound at IC50, 10 and 60 minutes
Description: as §1

[4] = tested on: p38β/p38γ/p38δ; assay: as above; assay type: cell-based; details: MDA-MB-231, compound at IC50, 10 and 60 minutes
Description: as §1

[5] = tested on: AKT-1/-2/-3/-pan; assay: as above; assay type: cell-based; details: MDA-MB-231, compound at IC50, 10 and 60 minutes
Description: as §1

[6] = tested on: ERK-1/-2; assay: as above; assay type: cell-based; details: MDA-MB-231, compound at IC50, 10 and 60 minutes
Description: as §1

[7] = tested on: MDA-MB-231; details: read-out: half maximal inhibitory anti-proliferative concentration (IC50); MDA-MB-231, previously reported; cited from earlier work
[8] = tested on: MDA-MB-231; assay: Human apoptosis proteome profiler array, MDA-MB-231; assay type: cell-based; details: for HIF-1α expression: MDA-MB-231, compound at IC50
Description: as §1

[9] = target: selected panel of 40 protein kinases; assay: Protein kinase profiling (Eurofins); assay type: biochemical; details: 1 μM of each NRPa, relative to DMSO control
Description: NRPa-47 and NRPa-48 specificity profiling assays were carried out at Eurofins Pharma Discovery Services (Dundee, UK) for Protein Kinase Profiling against a selected panel of 40 protein kinases. Results of protein kinases assayed at 1 μM of each NRPa are presented as a percentage of kinase activity in DMSO control reactions.

[10] = tested on: RSK-1/RSK-2, MSK-2, HSP-27, GSK-3, p70S6K; assay: Human phosphokinase proteome profiler array, MDA-MB-231: downstream kinase substrates; assay type: cell-based; details: MDA-MB-231, compound at IC50, 10 and 60 minutes
Description: as §1

[11] = target: T1, VEGF-A165/NRP-1 (Homo sapiens, UniProt O14786); details: previously described [15]; cited from earlier work
T1 sequence (O14786 22-856 limits assumed): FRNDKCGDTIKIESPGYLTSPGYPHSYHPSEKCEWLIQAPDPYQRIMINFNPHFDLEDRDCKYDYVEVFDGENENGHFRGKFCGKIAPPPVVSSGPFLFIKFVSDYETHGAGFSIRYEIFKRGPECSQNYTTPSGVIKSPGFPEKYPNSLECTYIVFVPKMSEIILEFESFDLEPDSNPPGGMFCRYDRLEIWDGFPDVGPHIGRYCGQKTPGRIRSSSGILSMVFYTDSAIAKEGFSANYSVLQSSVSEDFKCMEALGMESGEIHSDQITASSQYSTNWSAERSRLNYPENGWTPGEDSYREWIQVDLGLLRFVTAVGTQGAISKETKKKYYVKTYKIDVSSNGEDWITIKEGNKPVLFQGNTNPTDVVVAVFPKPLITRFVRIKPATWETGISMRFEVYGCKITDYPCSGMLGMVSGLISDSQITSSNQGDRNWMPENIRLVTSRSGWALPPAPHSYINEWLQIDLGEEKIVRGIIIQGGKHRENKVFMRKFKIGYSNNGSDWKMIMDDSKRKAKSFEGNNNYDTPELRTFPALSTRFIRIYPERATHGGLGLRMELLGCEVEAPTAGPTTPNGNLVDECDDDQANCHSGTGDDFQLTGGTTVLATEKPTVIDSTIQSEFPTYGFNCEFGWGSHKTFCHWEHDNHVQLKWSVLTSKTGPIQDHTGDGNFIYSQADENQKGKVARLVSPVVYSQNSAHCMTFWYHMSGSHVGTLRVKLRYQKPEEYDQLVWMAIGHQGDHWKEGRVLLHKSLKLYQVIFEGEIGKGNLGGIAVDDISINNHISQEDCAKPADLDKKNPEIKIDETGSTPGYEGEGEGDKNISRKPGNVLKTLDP

[12] = tested on: HIF-1α mRNA; assay: RT-PCR of HIF-1α mRNA in MDA-MB-231; assay type: cell-based, human; details: MDA-MB-231, time dependent, maximum effect at 60 minutes
Description: (§2) MDA-MB-231 RNA was extracted with NucleoSpinRNA II kit (Macherey-Nagel, France) and quantified using Nanodrop (ND-1000 spectrophotometer). 1 μg of each RNA sample was reverse-transcripted into cDNA using iScript cDNA Synthesis Kit (Bio-Rad, France) following the manufacturer's instructions. PCR amplification was performed in reaction mixture (25 μL) containing 200 μM of each dNTP, 1 μg of cDNA, 1 μM of primers and 0.625 U of GoTaq DNA Polymerase (Promega, France) with 45 s of denaturation at 95° C., 45 s of annealing at 60° C. and 1 min of extension at 72° C. for 30 cycles. PCR products were separated by 1% agarose gel electrophoresis, stained with ethidium bromide (Sigma, Germany) and analyzed using Gel Doc 2000 System (Bio-Rad, France).

[13] = tested on: VEGF-A165 mRNA; assay: RT-PCR of VEGF-A165 mRNA in MDA-MB-231; assay type: cell-based, human; details: MDA-MB-231, time dependent, maximum effect at 60 minutes
Description: as §2

[14] = MDA-MB-231, compound at IC50, 60 minutes and 48 hours

In the case of O=C(NC(=S)Nc1cccc(-c2nc3ccccc3[nH]2)c1)c1ccc2c(c1)OCCO2 [NRPa-48, N-[3-(1H-benzimidazol-2-yl)phenyl]-N′-(2,3-dihydro-1,4-benzodioxin-6-ylcarbonyl)thiourea], the “body weight of treated animals” value ([1]; 50 mg/kg by force-feeding, three times a week) is reported as “did not show any loss of weight”, the “treated mice alive at the end of treatment” value ([1]; 50 mg/kg force-feeding) is reported as 62% and the “tumor size reduction compared to the reference group” value ([1]; 50 mg/kg force-feeding, Day-38 (21 days after starting treatment)) is reported as “approximately 29%”. The tumor size reduction ([1]; 50 mg/kg force-feeding, Day-45) was 34%, the median survival ([1]; 50 mg/kg force-feeding, control group 35 days) was “over 56 days” and the JNK-1/-2/-3/-pan phosphorylation [2] was “significantly inhibited”. The p38α phosphorylation [3] was “significantly inhibited”, the p38β/p38γ/p38δ phosphorylation [4] was “significantly inhibited” and the AKT-1/-2/-3/-pan phosphorylation [5] was “inhibited from 10 minutes until 60 minutes”. For the same molecule, the ERK-1/-2 phosphorylation [6] was “significantly inhibited”, the IC50 [7] was 400 nM and the HIF-1α expression [8] was “inhibit HIF-1α expression”. For the same molecule, the PON-2 level [8, 14] was “remained unchanged”, the “anti-apoptotic proteins (Bcl-2, Bcl-x, cIAP-1, cIAP-2, XIAP, Survivin, Livin, Clusterin) and heat shock proteins (HSP-27/-60/-70) level” value [8, 14] was “down-modulated” and the caspase-3 cleavage [8, 14] was “induction”. For the same molecule, the “catalase (oxidative stress)” value [8, 14] was “high level of catalase”, the “cell cycle protein expression (p21, p27) and phosphorylation of Rad-17” value [8, 14] was “reduction” and the “heme oxygenase HO-1/HMOX1/HSP32 and HO-2/HMOX2 expression” value [8, 14] was “both reduced”. For the same molecule, the p53 phosphorylation sites [8, 14] was “inhibited”, the “pro-apoptotic proteins (Bad, Bax, SMAC/Diablo, HTRA2/Omi, cytochrome c) level” value [8, 14] was “significantly decreased” and the “kinase activity of 40-selected kinases in vitro” value [9] was “None of these were significantly affected”. The GSK-3 phosphorylation [10] was “inhibited in a time dependent manner”, the HSP27 phosphorylation [10] was “inhibited in a time dependent manner” and the MSK2 phosphorylation [10] was “inhibited in a time dependent manner”. For the same molecule, the RSK-1 phosphorylation [10] was “inhibited in a time dependent manner” and the RSK-2 phosphorylation [10] was “inhibited in a time dependent manner”.
For Cc1ccc(-c2nc3ccccc3[nH]2)cc1NC(=S)NC(=O)c1ccc2c(c1)OCCO2 [NRPa-47, N-[5-(1H-benzimidazol-2-yl)-2-methylphenyl]-N′-(2,3-dihydro-1,4-benzodioxin-6-ylcarbonyl)thiourea], the VEGF-A165/NRP-1 binding [11] is given as “inhibited VEGF-A165/NRP-1 binding”, the JNK-1/-2/-3/-pan phosphorylation [2] is given as “significant hyper-phosphorylations” and the p38α phosphorylation [3] is given as “significantly decreased”. The p38β/p38γ/p38δ phosphorylation [4] was “no significant variation”, the AKT-1/-2/-3/-pan phosphorylation [5] was “up-regulated” and the ERK-1/-2 phosphorylation [6] was “significant hyper-phosphorylations”. For the same molecule, the IC50 [7] was 600 nM, the HIF-1α expression [8] was “inhibit HIF-1α expression” and the “anti-apoptotic proteins (Bcl-2, Bcl-x, cIAP-1, cIAP-2, XIAP, Survivin, Livin, Clusterin) and heat shock proteins (HSP-27/-60/-70) level” value [8, 14] was “significantly reduced”. For the same molecule, the caspase-3 cleavage [8, 14] was “induction”, the “catalase (oxidative stress)” value [8, 14] was “catalase induction” and the “cell cycle protein expression (p21, p27) and phosphorylation of Rad-17” value [8, 14] was “reduction”. For the same molecule, the “heme oxygenase HO-1/HMOX1/HSP32 and HO-2/HMOX2 expression” value [8, 14] was “both reduced”, the p53 phosphorylation sites [8, 14] was “inhibited” and the “pro-apoptotic proteins (Bad, Bax, SMAC/Diablo, HTRA2/Omi, cytochrome c) level” value [8, 14] was “rapid decrease”. For the same molecule, the “kinase activity of 40-selected kinases in vitro” value [9] was “None of these were significantly affected”, the GSK-3 phosphorylation [10] was “affected” and the HSP27 phosphorylation [10] was “dephosphorylated”. For the same molecule, the MSK2 phosphorylation [10] was “dephosphorylated”, the RSK-1 phosphorylation [10] was “remained unchanged” and the RSK-2 phosphorylation [10] was “increase in phosphorylation”. The p70S6K phosphorylation [10] was “up-regulated”, the “HIF-1α mRNA expression” value [12] was “reduced” and the “VEGF-A165 mRNA expression” value [13] was “reduced”.

Reference: patent publication US20220307021A1, “A NEUROPILIN ANTAGONIST IN COMBINATION WITH A P38ALPHA-KINASE INHIBITOR FOR THE TREATMENT OF CANCER” (INSERM (Institut National de la santé et de la Recherche …, priority 2019, published 2022)
